PubChem BioAssay AID1259407 (Chemical Carcinogenesis Research Information System (CCRIS), 2018)
Calls of active or inactive are those of the source. The rule behind the calls is not given here.

System: CCRIS mutagenicity, Ames/micronucleus/aberration tests
Assay: CCRIS mutagenicity studies
[1] = Test System: AMES SALMONELLA TYPHIMURIUM, Strain/Indicator: TA98, Metabolic Activation: NONE, Method: PREINCUBATION
[2] = Test System: AMES SALMONELLA TYPHIMURIUM, Strain/Indicator: TA100, Metabolic Activation: NONE, Method: PREINCUBATION
[3] = Test System: AMES SALMONELLA TYPHIMURIUM, Strain/Indicator: TA1535, Metabolic Activation: NONE, Method: PREINCUBATION
[4] = Test System: AMES SALMONELLA TYPHIMURIUM, Strain/Indicator: TA100, Metabolic Activation: NONE, Method: STANDARD PLATE

CC(=O)c1ccncc1
mutagenic call (End Point: IN VITRO CHROMOSOMAL ABERRATIONS, Test System: CHO-LB CELLS, Metabolic Activation: RAT, LIVER, S-9, AROCLOR 1254): active; positive
mutagenic call (Test System: AMES SALMONELLA TYPHIMURIUM, Strain/Indicator: TA97, Metabolic Activation: HAMSTER, LIVER, S-9, AROCLOR 1254 (10 OR 30%), Method: PREINCUBATION): inactive; negative
mutagenic call (Test System: AMES SALMONELLA TYPHIMURIUM, Strain/Indicator: TA97, Metabolic Activation: NONE, Method: PREINCUBATION): inactive; negative
mutagenic call (Test System: AMES SALMONELLA TYPHIMURIUM, Strain/Indicator: TA97, Metabolic Activation: RAT, LIVER, S-9, AROCLOR 1254 (10 OR 30%), Method: PREINCUBATION): inactive; negative
mutagenic call (Test System: AMES SALMONELLA TYPHIMURIUM, Strain/Indicator: TA98, Metabolic Activation: HAMSTER, LIVER, S-9, AROCLOR 1254 (10 OR 30%), Method: PREINCUBATION): inactive; negative
mutagenic call [1]: inactive; negative
mutagenic call (Test System: AMES SALMONELLA TYPHIMURIUM, Strain/Indicator: TA98, Metabolic Activation: RAT, LIVER, S-9, AROCLOR 1254 (10 OR 30%), Method: PREINCUBATION): inactive; negative
mutagenic call (Test System: AMES SALMONELLA TYPHIMURIUM, Strain/Indicator: TA100, Metabolic Activation: HAMSTER, LIVER, S-9, AROCLOR 1254 (10 OR 30%), Method: PREINCUBATION): inactive; negative
mutagenic call [2]: inactive; negative
mutagenic call (Test System: AMES SALMONELLA TYPHIMURIUM, Strain/Indicator: TA100, Metabolic Activation: RAT, LIVER, S-9, AROCLOR 1254 (10 OR 30%), Method: PREINCUBATION): inactive; negative
mutagenic call (Test System: AMES SALMONELLA TYPHIMURIUM, Strain/Indicator: TA1535, Metabolic Activation: HAMSTER, LIVER, S-9, AROCLOR 1254 (10 OR 30%), Method: PREINCUBATION): inactive; negative
mutagenic call [3]: inactive; negative
mutagenic call (Test System: AMES SALMONELLA TYPHIMURIUM, Strain/Indicator: TA1535, Metabolic Activation: RAT, LIVER, S-9, AROCLOR 1254 (10 OR 30%), Method: PREINCUBATION): inactive; negative

NCCc1ccc(O)cc1
mutagenic call (Test System: MOUSE LYMPHOMA, Strain/Indicator: L5178Y (TK+/TK-), Metabolic Activation: NONE, Method: SUSPENSION/PLATE): active; positive
mutagenic call (Test System: MOUSE LYMPHOMA, Strain/Indicator: L5178Y (TK+/TK-), Metabolic Activation: RAT, LIVER, S-9, AROCLOR 1254, Method: SUSPENSION/PLATE): active; positive

CCOC(Cl)CCl (stereo not given)
mutagenic call (End Point: IN VITRO CHROMOSOMAL ABERRATIONS, Test System: CHL CELLS, Metabolic Activation: NONE): active; positive (structural and ploidy changes)
mutagenic call (End Point: IN VITRO CHROMOSOMAL ABERRATIONS, Test System: CHL CELLS, Metabolic Activation: RAT, LIVER, S-9, SODIUM PHENOBARBITAL AND 5,6-BENZOFLAVONE): active; positive (structural changes)

c1ccc2sc(SNC3CCCCC3)nc2c1
mutagenic call (Test System: AMES SALMONELLA TYPHIMURIUM, Strain/Indicator: TA98, Metabolic Activation: NONE, Method: STANDARD PLATE): inactive; negative
mutagenic call (Test System: AMES SALMONELLA TYPHIMURIUM, Strain/Indicator: TA98, Metabolic Activation: S-9, Method: STANDARD PLATE): inactive; negative
mutagenic call [4]: inactive; negative
mutagenic call (Test System: AMES SALMONELLA TYPHIMURIUM, Strain/Indicator: TA100, Metabolic Activation: S-9, Method: STANDARD PLATE): inactive; negative

O[C@H]1[C@@H]2O[C@@H]2c2c(ccc3cc4c(ccc5ccccc54)nc23)[C@@H]1O
mutagenic call [1]: active; positive
mutagenic call (Test System: AMES SALMONELLA TYPHIMURIUM, Strain/Indicator: TA98, Metabolic Activation: RAT, LIVER, AROCLOR 1254, NADPH GENERATING SYSTEM, Method: STANDARD PLATE): active; positive
mutagenic call [2]: active; positive
mutagenic call (Test System: AMES SALMONELLA TYPHIMURIUM, Strain/Indicator: TA100, Metabolic Activation: RAT, LIVER, AROCLOR 1254, NADPH GENERATING SYSTEM, Method: STANDARD PLATE): active; positive
mutagenic call (Test System: CHINESE HAMSTER V-79, Strain/Indicator: V-79/8-AZAGUANINE, Metabolic Activation: NONE): active; positive
mutagenic call (Test System: CHINESE HAMSTER V-79, Strain/Indicator: V-79/8-AZAGUANINE, Method: STANDARD PLATE): active; positive

CNS(=O)(=O)c1ccc(N)cc1
mutagenic call [1]: inactive; negative
mutagenic call (Test System: AMES SALMONELLA TYPHIMURIUM, Strain/Indicator: TA98, Metabolic Activation: RAT, LIVER, S-9, AROCLOR 1254, Method: PREINCUBATION): inactive; negative
mutagenic call [2]: inactive; negative
mutagenic call (Test System: AMES SALMONELLA TYPHIMURIUM, Strain/Indicator: TA100, Metabolic Activation: RAT, LIVER, S-9, AROCLOR 1254, Method: PREINCUBATION): inactive; negative

c1ccc2c(COCC3CO3)cccc2c1 (stereo not given)
mutagenic call [4]: active; positive
mutagenic call (Test System: AMES SALMONELLA TYPHIMURIUM, Strain/Indicator: TA1535, Metabolic Activation: NONE, Method: STANDARD PLATE): active; positive

O.[Cu].[Cu]
mutagenic call [1]: inactive; negative
mutagenic call (Test System: AMES SALMONELLA TYPHIMURIUM, Strain/Indicator: TA98, Metabolic Activation: RAT, LIVER, S-9, KC 500, Method: PREINCUBATION): inactive; negative
mutagenic call [2]: inactive; negative
mutagenic call (Test System: AMES SALMONELLA TYPHIMURIUM, Strain/Indicator: TA100, Metabolic Activation: RAT, LIVER, S-9, KC 500, Method: PREINCUBATION): inactive; negative
mutagenic call [3]: inactive; negative
mutagenic call (Test System: AMES SALMONELLA TYPHIMURIUM, Strain/Indicator: TA1535, Metabolic Activation: RAT, LIVER, S-9, KC 500, Method: PREINCUBATION): inactive; negative
mutagenic call (Test System: AMES SALMONELLA TYPHIMURIUM, Strain/Indicator: TA1537, Metabolic Activation: NONE, Method: PREINCUBATION): inactive; negative
mutagenic call (Test System: AMES SALMONELLA TYPHIMURIUM, Strain/Indicator: TA1537, Metabolic Activation: RAT, LIVER, S-9, KC 500, Method: PREINCUBATION): inactive; negative
mutagenic call (Test System: AMES SALMONELLA TYPHIMURIUM, Strain/Indicator: TA1538, Metabolic Activation: NONE, Method: PREINCUBATION): inactive; negative
mutagenic call (Test System: AMES SALMONELLA TYPHIMURIUM, Strain/Indicator: TA1538, Metabolic Activation: RAT, LIVER, S-9, KC 500, Method: PREINCUBATION): inactive; negative
mutagenic call (Test System: E. COLI, Strain/Indicator: WP2 UVRA, Metabolic Activation: NONE, Method: PREINCUBATION): inactive; negative
mutagenic call (Test System: E. COLI, Strain/Indicator: WP2 UVRA, Metabolic Activation: RAT, LIVER, S-9, KC 500, Method: PREINCUBATION): inactive; negative
